According to patent US10208074B2, “Pyrazole compounds and method for making and using the compounds” (Rigel Pharmaceuticals, Inc., priority 2015, dated 2019):
Counter-ions that a name gives are not always drawn. Like-named read-outs stand apart in the source and are kept apart here.

How the values were obtained:
IL-23p19 = assay: LPS induced IL23p19 in THP-1 cells (with IFNγ primed) assay; format: cell-based, Human; details: THP-1 cells, IFNγ primed, LPS 1 ug/mL, 18 hours, 10 pt, read-out: IL23-p19 ELISA, THP1-IFNy, LPS, 10 pt EC50
Source text: LPS Induced IL23p19 in THP-1 Cells (with IFNγ Primed) Assay
THP-1 Cells (ATCC, Cat#TIB-202), Dimethyl Sulfoxide (DMSO) (Sigma-Aldrich, Cat#D2650), RPMI 1640 (Cellgro, Cat#10-040-CM), Fetal Bovine Serum (Sigma, Cat#F4135), Albumin From Bovine Serum (BSA) (Sigma-Aldrich, Cat#A7906), LPS (Serotype K-235, Sigma, Product Number L 2143), IFNγ (Peprotech, Cat#300-02) Capture antibody: Human IL-23p19 ELISA (e-Bioscience, Cat. #14-7238-85), Detection antibody: Primary Mouse Biotinylated anti-human IL-12(p40/p70) (e-Bioscience, Cat. #13-7129-85), Secondary HRP-conjugated Streptavidin (R&D Systems, Cat#DY998), 1×PBST Washing Buffer (PBS-Tween tablet) (VWR International, Cat#80058-558), ELISA Blocking Buffer (PBS with 1% BSA), ELISA Dilution Buffer (PBS with 1% BSA), 384 Well Flat-Bottom, MaxiSorp Black Immuno Plates (Thermo Scientific, Cat#12-565-346), 384 Well Flat-Bottom, White Tissue Culture Plates (Thermo Scientific, Cat#12-565-343), Super Signal ELISA Pico Chemiluminescent Substrate (Thermo Scientific, Cat#37070), Cell Titer Glo reagent (Promega, Cat#G7573), Positive control, IKK2VI inhibitor (Calbiochem, Cat#401483), AquaMax 4000 plate washer (Molecular Devices), Luminometer, Wallac Victor2 1420 Multilabel Counter.
On day 1, 50K/well THP-1 cells were seeded and primed with IFNγ (50 ng/mL) in 384-well plates for about 18 hours in RPMI media with 10% FBS. On day 2, the compound was serially diluted in DMSO from 5 mM in 3-fold dilutions, and then diluted 1:125 in RPMI media with 10% FBS. 50 μL/well 2× compound was added to 50 μL/well THP-1 cells (with IFNγ primed) in duplicate in 384 well tissue culture plates. The cells were pre-incubated with compound for 1 hour at 37° C., 5% CO2 before addition of 10 μL/well 11×LPS to give a final concentration of 1 ug/mL LPS. Day 3, after stimulation for 18 hours at 37° C., 5% CO2, the assay plate was centrifuged and 70 μL/well supernatant was harvested. IL-23p19 protein in 70 μL/well of supernatant was measured by sandwich ELISA, and 25 μl/well Cell Titer Glo reagent was added to the remaining cells to measure compound toxicity.
Maxisorp immuno ELISA plates were pre-coated with 25 μL/well of anti-IL-23p19 capture antibody (2.5 ug/mL) in PBS overnight at room temperature. After washing with 1× PBST, the plates were blocked using 100 μL/well of 1% BSA in PBS for 2 hours at room temperature. The plates were washed three times with 1×PBST and 70 μL/well supernatant were added. The plates were incubated at room temperature for 2 hours with shaking and washed three times with 1×PBST. 25 μL/well of biotin labeled anti-IL-12(p40/p70) detection antibody (100 ng/mL) in PBS with 1% BSA was added and the plates were incubated at room temperature for 2 hours with shaking. After washing three times with 1×PBST, 25 μL/well of streptavidin-HRP (1:200) in PBS with 1% BSA was added and the plates were incubated at room temperature for 20 minutes with shaking. The plates were washed three times with 1× PBST and 25 μL/well of Super Signal ELISA Pico Chemiluminescent Substrate were added. The plates were read with a luminometer, and the chemiluminescence values were entered into Athena (Rigel) for curve fitting, EC50 calculation, and database storage.

IL-23 (p19/p40) = assay: IL23-p19 ELISA, Dendritic, LPS (compound screening using DC cells); format: cell-based, Human; details: PBMC-derived DC cells, IFNγ primed, LPS 1 μg/ml, 18 hours, 10 pt, read-out: IL23-p19 ELISA, Dendritic, LPS, 10 pt, EC50
Experimental: Compound Screening Using DC Cells
Human PBMC cells (400 million) obtained from the vendor were transferred into a T-175 flask containing 15 ml RPMI media (10% FBS) and incubate for 2 hours at 37° C. After 2 hours, the media including floating cells was aspirated out carefully and 12 ml of fresh RPMI media (10% FBS) containing GMCSF (100 ng/ml) and IL4 (20 ng/ml) was added, and the flask was kept in a 37° C. incubator for 7 days.
After 3 days, fresh GMCSF (100 ng/ml) and IL4 (20 ng/ml) were added to the flask and the incubation continued. After 7 days, the fully differentiated cells were harvested by spinning down (1200 rpm/5 min) and aspirating the media. The cells were suspended in fresh RPMI media (10% FBS) containing 50 ng/ml IFNγ (1000 U/ml) and then plated (50K/well in 100 μl) onto a white clear bottom 96 well plate and left in a 37° C. incubator for 24 hours.
After 24 hours incubation, 100 μl of RPMI media was added containing 2× concentrated test compound per well to the above cell-culture media (final concentration becomes 1×) and the plates were pre-incubated for 1 hour at 37° C. before stimulating with LPS.
After 1 hour compound pre-incubation, 10 piper well of 20× concentrated LPS solution in RPMI media was added to give a final concentration of 1 μg/ml. The mixture was shaken and incubated the plates at 37° C. for an additional 18 hours.
155 μl of the supernatant was harvested from each well carefully (without the tip touching the bottom of the well) and to the remaining 50 μl/well of the cell culture plate was added 50 μl of Cell Titer Glo reagent. The mixture was incubated for 1-2 minutes on a shaker and the plate was read for luminescence intensity to determine the compound cytotoxicity. The cell culture supernatant collected above was used to carry out IL23 ELISA (65 μl -Supernatant) and IL10 ELISA (90 μl—Supernatant) as described below.
Human IL-23 (p19/p40) ELISA Protocol (e-Biosciences)
To 10.5 ml PBS add 50 μl of anti-IL23 (p19) was added capture antibody (2.5 μg/ml). The mixture was mixed well and 100 μl of the coating solution was added to each well of the 96 well white plates from Pierce. The wells were covered and incubated overnight at 4° C.
The anti-IL23 (p19)-antibody-coated plates were washed 2× using TBST (use plate washer) and blocked using 200 μl of 0.5% Casein for 1.5-2 hours at room temperature with shaking.
The plates were washed 2× using TBST and the supernatant was transferred (65 μl/well) to the above pre-blocked/IL23(p19)-antibody-coated 96 well plate, and incubated at room temperature for 1.5 hours with shaking.
The plates were washed 4× using TBST (plate washer) and 100 μl/well detection antibody solution prepared from 2 μl of biotin labeled anti-IL-12 (p40/p70) antibody in 11 ml 1% BSA/PBS solution (1-5000 dilution) was added. The plates were incubated for 1 hour with shaking at Room temperature.
Again, the plates were washed 4× with TBST and 100 μl of HRP labeled Streptavidin (R&D Systems) solution (10 μl/10 ml 1% BSA solution) was added, and the plates were incubated at room temperature for another 45 minutes with shaking.
After 45 minutes, the plates were washed with TBST 4× and 100 ul/well Super Signal ELISA Pico Chemiluminescent Substrate from Pierce (3.5 ml A+3.5 ml B+3.5 ml MQ water) was added. The plates were shaken for 1-2 minutes then read on a plate reader.

| EC50 (IL-23p19; Homo sapiens, THP-1, 18 h) [nM] | EC50 (IL-23 (p19/p40); Homo sapiens, 18 h) [nM] | SMILES | other results |
| --- | --- | --- | --- |
| 43.4 | 5.7 | O=C(Nc1cn([C@H]2C[C@@H](O)C2)nc1-c1ccccn1)c1csc(-c2cn[nH]c2)n1 [II-14, N-(1-((1,3-cis)-3-hydroxycyclobutyl)-3-(pyridin-2-yl)-1H-pyrazol-4-yl)-2-(1H-pyrazol-4-yl)thiazole-4-carboxamide] |  |
| 137 | 5780 | CCO[C@H]1C[C@@H](n2cc(NC(=O)c3csc(-c4cn[nH]c4)n3)c(-c3ccc(C(F)(F)F)cn3)n2)C1 [II-86, N-(1-((1,3-cis)-3-ethoxycyclobutyl)-3-(5-(trifluoromethyl)pyridin-2-yl)-1H-pyrazol-4-yl)-2-(1H-pyrazol-4-yl)thiazole-4-carboxamide] |  |
| 78 | 34.3 | CCO[C@H]1C[C@@H](n2cc(NC(=O)c3ccc(-c4cn[nH]c4)o3)c(-c3cccc(F)n3)n2)C1 [Compound I-144, N-(1-((1s,3s)-3-ethoxycyclobutyl)-3-(6-fluoropyridin-2-yl)-1H-pyrazol-4-yl)-5-(1H-pyrazol-4-yl)furan-2-carboxamide formate] |  |
| 12.2 | 10.6 | CC(C)(C)C(=O)N1CC(n2cc(NC(=O)c3ccc(-c4cn[nH]c4)o3)c(-c3ccccn3)n2)C1 [Compound I-91, N-[1-{1-Pivaloylazetidin-3-yl}-3-(pyridine-2-yl)-1H-pyrazol-4-yl]-5-(1H-pyrazol-4-yl)furan-2-carboxamide, formate salt] |  |
| 1170 | 3210 | O=C(Nc1cn(CC2(CO)COC2)nc1-c1ccccn1)c1csc(-c2cn[nH]c2)n1 [II-47, N-(1-((3-(hydroxymethyl)oxetan-3-yl)methyl)-3-(pyridin-2-yl)-1H-pyrazol-4-yl)-2-(1H-pyrazol-4-yl)thiazole-4-carboxamide] |  |
|  |  | CCOCCn1cc(NC(=O)c2ccc(-c3cnn(COP(=O)(O)O)c3)o2)c(-c2ccccn2)n1 [Compound I-55, sodium (4-(5-((1-(2-ethoxyethyl)-3-(pyridin-2-yl)-1H-pyrazol-4-yl)carbamoyl)furan-2-yl)-1H-pyrazol-1-yl)methyl phosphate] | EC50 (IL-23p19; phosphate): 1200 nM; EC50 (IL-23 (p19/p40); phosphate): 801 nM |
|  |  | Cn1cc(NC(=O)c2ccc(-c3cn[nH]c3)o2)c(-c2ccccn2)n1 [Compound I-77, N-{1-Methyl-3-(pyridine-2-yl)-1H-pyrazol-4-yl}-5-(1H-pyrazol-4-yl)furan-2-carboxamide, free base] | EC50 (IL-23p19): 50.4 nM; EC50 (IL-23 (p19/p40)): 41 nM |
| 22.5 | 50.4 | CN1CCN(CCn2cc(NC(=O)c3csc(-c4cn[nH]c4)n3)c(-c3ccccn3)n2)CC1 [II-61, N-(1-(2-(4-methylpiperazin-1-yl)ethyl)-3-(pyridin-2-yl)-1H-pyrazol-4-yl)-2-(1H-pyrazol-4-yl)thiazole-4-carboxamide] |  |
| 2220 | 2060 | Cn1cc(NC(=O)c2ccc(-c3cnn(COP(=O)(OC(C)(C)C)OC(C)(C)C)c3)o2)c(-c2ccccn2)n1 [Compound I-80, Di-tert-butyl-[[4-{4-(5-((1-methyl-3-(pyridine-2-yl)-1H-pyrazol-4-yl)carbamoyl)furan-2-yl)-1H-pyrazol-1-yl}methyl] phosphate] |  |
| 173 | 110 | CCO[C@H]1C[C@@H](n2cc(NC(=O)c3ccc(-c4cn[nH]c4)o3)c(-c3cc(F)ccn3)n2)C1 [Compound I-148, N-(1-((1s,3s)-3-ethoxycyclobutyl)-3-(4-fluoropyridin-2-yl)-1H-pyrazol-4-yl)-5-(1H-pyrazol-4-yl)furan-2-carboxamide formate] |  |
| 401 | 405 | CCO[C@H]1C[C@@H](n2cc(NC(=O)c3csc(-c4cn[nH]c4)n3)c(-c3nnco3)n2)C1 [II-74, N-(1-((1s,3s)-3-ethoxycyclobutyl)-3-(1,3,4-oxadiazol-2-yl)-1H-pyrazol-4-yl)-2-(1H-pyrazol-4-yl)thiazole-4-carboxamide] |  |
|  | 26.5 | Cn1cc(NC(=O)c2ccc(-c3cn[nH]c3)o2)c(-c2ccc(N3CCOCC3)cn2)n1 [Compound I-105, N-(1-methyl-3-(5-morpholinopyridin-2-yl)-1H-pyrazol-4-yl)-5-(1H-pyrazol-4-yl)furan-2-carboxamide] |  |
|  | 258 | CCO[C@H]1C[C@@H](n2cc(NC(=O)c3csc(-c4c[nH]nc4C)n3)c(-c3ccccn3)n2)C1 [II-92, N-(1-((1,3-cis)-3-ethoxycyclobutyl)-3-(pyridin-2-yl)-1H-pyrazol-4-yl)-2-(3-methyl-1H-pyrazol-4-yl)thiazole-4-carboxamide] |  |
